Laboratory results: patent US11878992B2, “Crystallization of steviol glycosides” (DSM IP Assets B.V., priority 2016, dated 2024)
One block for each compound: values may come before it.

What was measured:
[1] = suitable for use in carbonated beverages and many other foods; cited from earlier work
[2] = system: mildly hypertensive patients; conditions: studies suggest; cited from earlier work
Type II diabetics = conditions: studies suggest; cited from earlier work
[3] = relative to sucrose; cited from earlier work
[4] = spontaneous crystallization from nanofiltration retentate; format: physicochemical; conditions: aqueous nanofiltration retentate of fermentation broth
Procedure: The fermentation broth after laboratory scale fermentations was processed as follows: • centrifugation 30 min at 4000×g; • pH in the supernatant was adjusted to 3.5 and supernatant was heated 30 min at 70° C.; • the heated supernatant was clarified by centrifugation; • the clarified supernatant was ultrafiltrated through a membrane with 10 kDa cut-off; and • the permeate after ultrafiltration was nanofiltrated using a membrane with 150-300 Da cut-off.
Finally, 14.5 g of dried crystals were isolated out of 0.871 kg NF retentate.

[5] = solubility in washing liquid (95% ethanol); format: physicochemical; conditions: in 95% ethanol (washing liquid)
Procedure: The suspension of 2.5 g crystals in 100 ml water was heated to 75° C. for 10 minutes to dissolve the crystals. The solution was cooled to 20° C. at 10° C./h and incubated at this temperature overnight. The crystals formed were filtered by vacuum and washed with two cake volumes of 95% ethanol
The choice of washing liquid was because of the low rebaudioside M solubility in it. The crystals were dried at 60° C. under vacuum overnight. […] The crystals contained >95% Reb-M as determined by LC-UV and the level of all KAG was below the limit of detection of LC-MS.

SMILES: C=C1C[C@@]23CC[C@H]4[C@@](C)(CCC[C@@]4(C)C(=O)O[C@@H]4O[C@H](CO)[C@@H](O)[C@H](O)[C@H]4O)[C@@H]2CC[C@]1(O[C@@H]1O[C@H](CO)[C@@H](O)[C@H](O)[C@H]1O[C@@H]1O[C@H](CO)[C@@H](O)[C@H](O)[C@H]1O)C3 [Stevioside]
- heat and pH stability [1]: heat and pH stable
- effect on blood pressure [2]: can reduce blood pressure
- effect on blood glucose levels (Type II diabetics): can reduce blood glucose levels

SMILES: C=C1C[C@@]23CC[C@H]4[C@@](C)(CCC[C@@]4(C)C(=O)O[C@@H]4O[C@H](CO)[C@@H](O)[C@H](O)[C@H]4O)[C@@H]2CC[C@]1(O[C@@H]1O[C@H](CO)[C@@H](O)[C@H](O[C@@H]2O[C@H](CO)[C@@H](O)[C@H](O)[C@H]2O)[C@H]1O[C@@H]1O[C@H](CO)[C@@H](O)[C@H](O)[C@H]1O)C3 [rebaudioside A]
- heat and pH stability [1]: heat and pH stable

SMILES: C=C1C[C@@]23CC[C@H]4[C@@](C)(CCC[C@@]4(C)C(=O)O[C@@H]4O[C@H](CO)[C@@H](O)[C@H](O)[C@H]4O[C@@H]4O[C@H](CO)[C@@H](O)[C@H](O)[C@H]4O)[C@@H]2CC[C@]1(O[C@@H]1O[C@H](CO)[C@@H](O)[C@H](O[C@@H]2O[C@H](CO)[C@@H](O)[C@H](O)[C@H]2O)[C@H]1O[C@@H]1O[C@H](CO)[C@@H](O)[C@H](O)[C@H]1O)C3 [rebaudioside D]
- times sweeter than sucrose [3]: about 200 times

- concentration in the retentate of nanofiltration at which crystallization begins spontaneously [4]: exceeded 30 g/I
- solubility [5]: low
SMILES: C=C1C[C@@]23CC[C@H]4[C@@](C)(CCC[C@@]4(C)C(=O)O[C@@H]4O[C@H](CO)[C@@H](O)[C@H](O[C@@H]5O[C@H](CO)[C@@H](O)[C@H](O)[C@H]5O)[C@H]4O[C@@H]4O[C@H](CO)[C@@H](O)[C@H](O)[C@H]4O)[C@@H]2CC[C@]1(O[C@@H]1O[C@H](CO)[C@@H](O)[C@H](O[C@@H]2O[C@H](CO)[C@@H](O)[C@H](O)[C@H]2O)[C@H]1O[C@@H]1O[C@H](CO)[C@@H](O)[C@H](O)[C@H]1O)C3 [rebaudioside M]
